From the NIST ThermoML archive (doi:10.1016/j.fluid.2004.11.019)

Test: xn = mol fraction of the nth substance listed
Conditions: Liquid

CCO [ethanol] + O
mass density [kg/m3]
Conditions | 100 kPa | 10000 kPa | 20000 kPa | 30000 kPa | 40000 kPa
298.15 K, x1 = 0.003 | 995.3 | 999.8 | 1004.2 | 1008.5 | 1012.7
298.15 K, x1 = 0.0042 | 994.5 | 998.9 | 1003.2 | 1007.4 | 1011.5
298.15 K, x1 = 0.0082 | 993 | 997.3 | 1001.7 | 1005.9 | 1010
298.15 K, x1 = 0.0119 | 991.5 | 995.8 | 1000.1 | 1004.3 | 1008.3
298.15 K, x1 = 0.0158 | 989.8 | 994 | 998.2 | 1002.4 | 1006.4
298.15 K, x1 = 0.0184 | 988.4 | 992.6 | 996.8 | 1000.9 | 1005
298.15 K, x1 = 0.0219 | 987.6 | 991.7 | 995.9 | 1000.1 | 1004.1
298.15 K, x1 = 0.0255 | 986 | 990.2 | 994.4 | 998.4 | 1002.4
298.15 K, x1 = 0.0279 | 984.7 | 988.7 | 992.9 | 996.9 | 1000.8
298.15 K, x1 = 0.0315 | 984 | 988 | 992.1 | 996.1 | 1000
298.15 K, x1 = 0.0366 | 981.6 | 985.7 | 989.8 | 993.8 | 997.6
298.15 K, x1 = 0.0392 | 980.7 | 984.7 | 988.6 | 992.6 | 996.4
298.15 K, x1 = 0.0439 | 979.2 | 983.3 | 987.3 | 991.2 | 995.1
298.15 K, x1 = 0.0483 | 977.5 | 981.6 | 985.6 | 989.5 | 993.3
298.15 K, x1 = 0.0516 | 977.1 | 981 | 985.1 | 988.9 | 992.7
298.15 K, x1 = 0.0559 | 975.8 | 979.8 | 983.8 | 987.7 | 991.5
298.15 K, x1 = 0.06 | 974.5 | 978.5 | 982.4 | 986.3 | 990.1
298.15 K, x1 = 0.0652 | 972.9 | 976.9 | 980.8 | 984.7 | 988.4
298.15 K, x1 = 0.0679 | 972.2 | 976.1 | 980 | 983.9 | 987.6
298.15 K, x1 = 0.0722 | 971 | 974.9 | 978.7 | 982.6 | 986.3
298.15 K, x1 = 0.0801 | 968.6 | 972.4 | 976.2 | 980 | 983.7
298.15 K, x1 = 0.084 | 967.9 | 971.8 | 975.7 | 979.5 | 983.2
298.15 K, x1 = 0.0879 | 966.7 | 970.6 | 974.4 | 978.2 | 981.9
298.15 K, x1 = 0.0926 | 965.6 | 969.3 | 973.2 | 976.9 | 980.6
298.15 K, x1 = 0.0958 | 964.6 | 968.5 | 972.4 | 976.1 | 979.8
298.15 K, x1 = 0.1006 | 963.2 | 967.1 | 971 | 974.8 | 978.5
298.15 K, x1 = 0.1111 | 960.2 | 964.1 | 968 | 971.7 | 975.4
298.15 K, x1 = 0.1225 | 956.8 | 960.7 | 964.7 | 968.5 | 972.2
298.15 K, x1 = 0.1296 | 954.9 | 958.8 | 962.8 | 966.7 | 970.4
298.15 K, x1 = 0.1402 | 951.8 | 955.8 | 961.3 | 963.7 | 967.3
298.15 K, x1 = 0.151 | 948.4 | 952.5 | 956.6 | 960.5 | 964.3
298.15 K, x1 = 0.1601 | 945.6 | 949.8 | 953.9 | 957.9 | 961.7
298.15 K, x1 = 0.1703 | 942.5 | 946.7 | 950.9 | 955 | 958.9
298.15 K, x1 = 0.18 | 939.8 | 943.9 | 948.1 | 952.2 | 956.2
298.15 K, x1 = 0.1903 | 936.5 | 940.9 | 945.2 | 949.3 | 953.3
298.15 K, x1 = 0.1996 | 933.5 | 938 | 942.3 | 946.5 | 950.5
298.15 K, x1 = 0.2269 | 925.4 | 930 | 934.5 | 938.7 | 942.9
298.15 K, x1 = 0.2502 | 918.5 | 923.3 | 928 | 932.4 | 936.7
298.15 K, x1 = 0.2745 | 911.7 | 916.6 | 921.3 | 925.9 | 930.3
298.15 K, x1 = 0.3009 | 904.5 | 909.6 | 914.5 | 919.2 | 923.7
298.15 K, x1 = 0.35 | 891.9 | 897.1 | 902.3 | 907.2 | 911.9
298.15 K, x1 = 0.4034 | 879.4 | 884.9 | 890.4 | 895.5 | 900.4
298.15 K, x1 = 0.4501 | 868.8 | 874.7 | 880.4 | 885.7 | 890.8
298.15 K, x1 = 0.498 | 859.3 | 865.4 | 871.3 | 876.8 | 882
298.15 K, x1 = 0.5501 | 849.5 | 855.8 | 861.9 | 867.6 | 873
298.15 K, x1 = 0.5998 | 840.9 | 847.4 | 853.7 | 859.5 | 865.1
298.15 K, x1 = 0.6489 | 832.7 | 839.5 | 846 | 852 | 857.7
298.15 K, x1 = 0.6967 | 825.2 | 832.3 | 839 | 845.1 | 851
298.15 K, x1 = 0.7475 | 818.2 | 825.4 | 832.3 | 838.5 | 844.5
298.15 K, x1 = 0.7996 | 810.9 | 818.3 | 825.4 | 831.9 | 838.1
298.15 K, x1 = 0.8484 | 804.4 | 812.1 | 819.3 | 825.9 | 832.3
298.15 K, x1 = 0.8993 | 798 | 805.8 | 813.3 | 820 | 826.5
298.15 K, x1 = 0.9503 | 791.7 | 799.9 | 807.5 | 814.5 | 821
298.15 K, x1 = 1 | 785.7 | 794 | 801.9 | 808.9 | 815.7
323.15 K, x1 = 0.003 | 986.5 | 990.8 | 994.9 | – | –
323.15 K, x1 = 0.0042 | 985.4 | 989.6 | 993.9 | – | –
323.15 K, x1 = 0.0082 | 984 | 988.2 | 992.4 | – | –
323.15 K, x1 = 0.0119 | 982.7 | 986.9 | 991.1 | – | –
323.15 K, x1 = 0.0158 | 980.5 | 984.7 | 988.9 | – | –
323.15 K, x1 = 0.0184 | 979.2 | 983.3 | 987.5 | – | –
323.15 K, x1 = 0.0219 | 978 | 982.2 | 986.3 | – | –
323.15 K, x1 = 0.0255 | 976.5 | 980.6 | 984.7 | – | –
323.15 K, x1 = 0.0279 | 974.8 | 979 | 983.1 | – | –
323.15 K, x1 = 0.0315 | 973.9 | 978.1 | 982.2 | – | –
323.15 K, x1 = 0.0366 | 971.4 | 975.6 | 979.6 | – | –
323.15 K, x1 = 0.0392 | 970.2 | 974.3 | 978.4 | – | –
323.15 K, x1 = 0.0439 | 968.6 | 972.8 | 976.8 | – | –
323.15 K, x1 = 0.0483 | 966.6 | 970.7 | 974.8 | – | –
323.15 K, x1 = 0.0516 | 965.9 | 970 | 974 | – | –
323.15 K, x1 = 0.0559 | 964.5 | 968.6 | 972.7 | – | –
323.15 K, x1 = 0.06 | 962.9 | 967.1 | 971.2 | – | –
323.15 K, x1 = 0.0652 | 960.9 | 965 | 969.1 | – | –
323.15 K, x1 = 0.0679 | 960.2 | 964.3 | 968.3 | – | –
323.15 K, x1 = 0.0722 | 958.3 | 962.5 | 966.6 | – | –
323.15 K, x1 = 0.0801 | 955.1 | 959.3 | 963.4 | – | –
323.15 K, x1 = 0.084 | 954.7 | 958.9 | 963 | – | –
323.15 K, x1 = 0.0879 | 952.9 | 957.1 | 961.2 | – | –
323.15 K, x1 = 0.0926 | 951.4 | 955.5 | 959.6 | – | –
323.15 K, x1 = 0.0958 | 950.1 | 954.4 | 958.5 | – | –
323.15 K, x1 = 0.1006 | 948.5 | 952.8 | 956.9 | – | –
323.15 K, x1 = 0.1111 | 944.7 | 949 | 953.2 | – | –
323.15 K, x1 = 0.1225 | 940.6 | 945.1 | – | – | –
323.15 K, x1 = 0.1296 | 938.2 | 942.6 | – | – | –
323.15 K, x1 = 0.1402 | 934.5 | 939 | – | – | –
323.15 K, x1 = 0.151 | 930.7 | 935.2 | – | – | –
323.15 K, x1 = 0.1601 | 927.5 | 932.2 | – | – | –
323.15 K, x1 = 0.1703 | 924 | 928.8 | – | – | –
323.15 K, x1 = 0.18 | 920.6 | 925.5 | – | – | –
323.15 K, x1 = 0.1903 | 917.3 | 922.1 | – | – | –
323.15 K, x1 = 0.1996 | 914.1 | 919 | – | – | –
323.15 K, x1 = 0.2269 | 905.2 | 910.3 | – | – | –
323.15 K, x1 = 0.2502 | 898.1 | 903.4 | – | – | –
323.15 K, x1 = 0.2745 | 890.8 | 896.3 | – | – | –
323.15 K, x1 = 0.3009 | 883.5 | 889.2 | – | – | –
323.15 K, x1 = 0.35 | 870.2 | 876.2 | – | – | –
323.15 K, x1 = 0.4034 | 857.3 | 863.7 | – | – | –
323.15 K, x1 = 0.4501 | 846.7 | 853.3 | – | – | –
323.15 K, x1 = 0.498 | 837 | 843.9 | – | – | –
323.15 K, x1 = 0.5501 | 826.9 | 834.3 | – | – | –
323.15 K, x1 = 0.5998 | 818.4 | 826.3 | – | – | –
323.15 K, x1 = 0.6489 | 810.1 | 817.9 | – | – | –
323.15 K, x1 = 0.6967 | 802.8 | 810.9 | – | – | –
323.15 K, x1 = 0.7475 | 795.4 | 803.8 | – | – | –
323.15 K, x1 = 0.7996 | 788.4 | 796.9 | – | – | –
323.15 K, x1 = 0.8484 | 781.9 | 790.8 | – | – | –
323.15 K, x1 = 0.8993 | 775.6 | 784.7 | – | – | –
323.15 K, x1 = 0.9503 | 769.5 | 779 | – | – | –
323.15 K, x1 = 1 | 763.7 | 773.4 | – | – | –
